In patent US11458203B2, “Pharmaceutical compositions comprising caffeic acid chelates” (Arizona Board of Regents, on behald of Arizona State …, priority 2017, dated 2022):
Like-named read-outs stand apart in the source and are kept apart here.

Tests used:
[1] = test system: HSV1; assay: HSV1 plaque formation assay in Vero cells; assay type: cell-based; conditions: for IC50: read-out: HSV1 IC50; for antiviral activity of the substance by itself (in words): component alone, not combined
[2] = test system: HSV2; assay: HSV2 plaque formation assay in Vero cells; assay type: cell-based; conditions: FIG. 6
Protocol: The antiviral assays were conducted as follows. For HSV1 and HSV2, Vero cells were grown in Dulbecco's minimal essential media containing 10% heat inactivated fetal bovine serum and antibiotic/antimycotic (ThermoFisher) in a 37° C., 5% CO2 incubator. Cells were seeded in standard 6-well tissue culture dishes. HSV1 virus was diluted to 100 plaque forming units/100 μL complete media. The virus samples were treated for 15 minutes with the indicated concentrations of the test compound/material. These treated viral samples were used to infect the confluent Vero cell monolayers. Cells were infected for 1 hour at 37° C. with occasional rocking. After 1 hour, 2 mLs of complete media was added to each well. The test compound was added to the media at the indicated concentration. The dishes were placed in the incubator for 3 days. After 3 days, the media was removed and the cells stained with 0.5% crystal violet. The number of plaques present were counted by hand and graphed as a percent relative to untreated samples.

[3] = test system: VSV-Ebola pseudotype; assay type: cell-based, VSV-Ebola pseudotype (Zaire Ebola virus glycoprotein)
[4] = test system: vaccinia virus (Copenhagen strain); assay type: cell-based; conditions: FIG. 6
[5] = test system: vesicular stomatitis virus (VSV); assay type: cell-based; conditions: FIG. 6
[6] = test system: Zika virus; assay type: cell-based; conditions: at the concentrations tested
[7] = test system: Rhinovirus 14; assay type: cell-based
[8] = test system: reovirus type 3; assay type: cell-based
[9] = test system: Vero cells; conditions: African green monkey, 24 h, 27000 μM
[10] = test compound paired with Fe^3+, FIG. 7 and FIG. 8
[11] = Human alphaherpesvirus 1, Vero, test compound paired with Fe^3+, single dose-response trial, minimum three concentrations, FIG. 7 and FIG. 8

In the case of `O=S(=O)(O)c1cc(O)c(O)c(S(=O)(=O)O)c1` [Tiron], the “anti-HSV1 activity (in words)” value [1, 10] is reported as “low activity”.
Work on `O=C(O)Cc1ccc(O)c(O)c1` [3,4-dihydroxylphenylacetic acid] yielded an IC50 [1, 11] of 101 µM.
`O=C(O)C(O)Cc1ccc(O)c(O)c1` (stereo not drawn) [Danshensu, 3-(3,4-dihydroxyphenyl)-2-hydroxypropanoic acid] gave an IC50 ([1]; Human alphaherpesvirus 1, Vero) of 47.1 µM.
With `[Cl][Fe]([Cl])[Cl]` [iron(III), iron(III) chloride] the “antiviral activity of the substance by itself (in words)” value (shortened to “antiviral activity of the substance”) [1] was “no antiviral properties” and the “antiviral activity of the substance” value ([1]; listed as Iron(III)) was “no detectable antiviral activity”.
`Oc1ccccc1O` [catechol] was tested, and the “anti-HSV1 activity (in words)” value [1, 10] was “low activity”.
`O=C(/C=C/c1ccc(O)c(O)c1)O[C@H](Cc1ccc(O)c(O)c1)C(=O)O` [rosmarinic acid] was tested, and the IC50 [1, 11] was 101 µM.
`O=C(O)c1ccc(O)c(O)c1` [3,4-dihydroxybenzoic acid] was tested, and the “anti-HSV1 activity (in words)” value [1, 10] was “low activity”.
For copper(II), the “inhibition of plaque formation” value ([1]; inorganic ions in the absence of caffeic acid, 83 μM (highest dose tested), FIG. 2 and FIG. 3) was 38%.
In the case of chicoric acid, the “anti-HSV1 activity relative to caffeic acid, molar basis” value ([1]; paired with Fe^3+, FIG. 8) is reported as “a little over triple that of caffeic acid” and the IC50 ([1]; test compound paired with Fe^3+, single dose-response trial, minimum three concentrations, FIG. 7 and FIG. 8) is reported as 17.4 µM.
For `O=C(O)C=Cc1ccc(O)cc1O` [2,4-dihydroxycinnamic acid], the “anti-HSV1 activity (in words)” value [1, 10] was “inactivity”.
With `O=C(O)C=Cc1ccc(O)c(O)c1` [caffeic acid, 3,4-dihydroxycinnamic acid] the EC50 ([1]; Human alphaherpesvirus 1, Vero, FIG. 1, inorganic ions added at half molar ratio to caffeic acid (2:1 organic:inorganic), caffeic acid alone = average of two separate tests, read-out: HSV1 EC50 (inhibition of plaque formation)) was 18600 µM, the IC50 [1, 11] was 66.7 µM and the “antiviral activity of the substance” value [1] was “weak antiviral properties”. For the same molecule, the “antiviral activity of the substance” value ([1]; listed as Caffeic acid) was “minimal effect”, the “effect on HSV2 (in words)” value [2] was “minimal effect” and the “effect on VSV-Ebola pseudotype (in words)” value [3] was “minimal effect”. The “effect on vaccinia virus (in words)” value [4] was “minimal effect”, the “effect on wild type VSV (in words)” value [5] was “minimal effect” and the “effect on Zika virus (in words)” value [6] was “unaffected”. The “effect on Rhinovirus (in words)” value [7] was “unaffected”, the “effect on Reovirus (in words)” value [8] was “unaffected” and the cell viability [9] was at least 90%.
In the case of `Nc1nc2c(ncn2COCCO)c(=O)[nH]1` [acyclovir], the “activity relative to the caffeic acid and iron chelates” value ([1]; positive control, FIG. 1 trial) is reported as “about 20 fold”.
With caffeic acid+sulfate the “anti-HSV1 activity compared with caffeic acid alone” value ([1]; FIG. 1, ion at half molar ratio to caffeic acid) was “no increased activity over caffeic acid alone”.
For `CC(Cc1ccc(O)c(O)c1)C(C)Cc1ccc(O)c(O)c1` (stereo not drawn) [Nordihydroguaiaretic acid], the “anti-HSV1 activity at highest concentration tested” value ([1]; combined with iron(III), at 330 μM, FIG. 8) was “no activity”, the “anti-HSV1 activity (in words)” value [1, 10] was “low activity” and the “anti-HSV1 activity (in words)” value ([1]; test compound paired with Fe^3+, FIG. 7 and FIG. 8, listed as nordihydroguaiaretic acid) was “no anti-HSV1 activity”.
`NCCc1ccc(O)c(O)c1` [dopamine] was tested, and the “anti-HSV1 activity (in words)” value [1, 10] was “low activity”.
